For series [1], the system named is classical complement pathway. The experiment in a line: In vitro haemolysis assay (inhibition of classical complement pathway). The series is classed as cell-based, human. On the procedure:
Method The in vitro effect of test compounds was assessed by measuring their inhibitory effect of the classical complement pathway in a haemolysis assay. Briefly, test compounds and reference compounds were dissolved in DMSO and diluted in Tris/Casein Assay Buffer (10 mM Tris, 145 mM NaCl, 0.5 mM MgCl2, 0.15 mM CaCl2, and 0.1% W/V Casein, adjusted to pH 7.4) as 9-point serial dilutions in a 96 well plate. Sensitized sheep red blood cells (RBC) coated with rabbit anti-sheep erythrocyte antiserum (Complement Technology, Inc., TX, USA) were washed in Tris/Casein Assay Buffer. 50 μL from each well of diluted compound was added to a 96-well plate containing 50 μL diluted human serum (Complement Technology, Inc., TX, USA) and incubated for 15 minutes at room temperature. The serum dilution factor was optimized for every serum batch to obtain 70-90% of maximal haemolysis using the protocol. Then 50 μL sensitized sheep red blood cells were added to all wells ([…] per well). After 30 minutes of incubation at 37° C. with gentle agitation, the reaction was stopped by addition of 50 μL Tris STOP Buffer per well (10 mM EDTA, 10 mM Tris, 145 mM NaCl adjusted to pH 7.4). The RBCs were then removed by centrifugation and the resulting supernatant measured for hemolysis by absorbance at 405 nm. The response was normalized relative to a positive and negative control (vehicle) to calculate the IC50 from the concentration response curve using the 4-parameter logistic (4PL) nonlinear model for curve fitting.

The nature of series [2]: Solubility test at 10 mg/mL (visual inspection and light scattering). The series is classed as physicochemical. Conditions: for Solubility, Condition 1 Acetate pH 4: 10 mg/mL compound in 100 mM acetate pH 4; for Solubility, Condition 2 Acetate pH 5: 10 mg/mL compound in 100 mM acetate pH 5; for Solubility, Condition 3 Phosphate pH 6: 10 mg/mL compound in 100 mM phosphate pH 6; for Solubility, Condition 4 Phosphate pH 7: 10 mg/mL compound in 100 mM phosphate pH 7; for Solubility, Condition 5 Phosphate pH 7.5: 10 mg/mL compound in 100 mM phosphate pH 7.5. As to the method: The solubility of compounds was assessed by measuring light scattering over a pH interval from pH 4 to pH 7.5.
Compounds were dissolved in a stock solution of 20 mg/mL in H2O at pH 2.5 or pH 10.
These stock solutions were diluted 1:1 with 200 mM buffered solution to reach a final solution of 10 mg/mL compound in 100 mM buffer. The 5 investigated conditions were (1) acetate pH 4.0, (2) acetate pH 5.0, (3) phosphate pH 6.0, (4) phosphate pH 7 and (5) phosphate pH 7.5.
Visual inspection included manually checking the 96 well plate for wells that are clear or non-clear. In addition to this a picture of the 96 well plate is taken.
Absorbance was measured at four wavelengths: 280 nm, 325 nm, 340 nm and 360 nm in an UV transparent 96 well microplate in a SpectraMax 190 microplate reader (Molecular Devices).
The criteria for this was a combination of visual inspection and light scattering not exceeding 0.1 AU, where values below 0.1 AU are good in visually clear samples. […]

[3] abbreviates: Table 3, human serum, sensitized sheep red blood cells, read-out: IC50[nM], in vitro analysis of inhibition of hemolysis.

Like-named read-outs stand apart in the source and are kept apart here. Starred links: 1 amine or outer side, 2 acyl side, 3 side chain; linkers in the order of their positions; H or OH if unused. Positions of bridges follow the written chain, without caps; N, C: chain ends. Non-standard residues stand in square brackets, D forms with d. Residues, ends and D or L forms follow the SMILES beside them. Groups on a side chain read outwards from the residue. *: point of attachment. Trp(1-Me) = Cn1cc(C[C@H](N)C(=O)O)c2ccccc21; Abu(4-yl) = O=C([C@H](CC[*:3])N[*:1])[*:2]; C18 diacid = O=C(O)CCCCCCCCCCCCCCCCC(=O)*; C16 diacid = O=C(O)CCCCCCCCCCCCCCC(=O)*; γGlu = O=C(O)[C@H](CCC(=O)[*:2])N[*:1]; AEEA = NCCOCCOCC(=O)O; Sar = CNCC(=O)O

Usually IC50 stands for the midpoint of a concentration-inhibition curve.

As for `CC[C@H](C)[C@@H]1NC(=O)[C@@H](NC(=O)[C@H](Cc2ccccc2)NC(=O)[C@H](CCC(=O)O)NC(=O)[C@H](CO)NC(C)=O)CSCC[C@@H](C(=O)N[C@H](C(=O)N[C@@H](CCC(=O)O)C(=O)NCC(=O)N[C@@H](CCC(=O)O)C(=O)NCC(=O)NCC(=O)NCC(=O)N[C@@H](CCCCNC(=O)CC[C@H](NC(=O)CNC(=O)CC[C@H](NC(=O)CCCCCCCCCCCCCCCCC(=O)O)C(=O)O)C(=O)O)C(N)=O)[C@@H](C)O)NC(=O)[C@H](CCCNC(=N)N)NC(=O)[C@H](Cc2c[nH]cn2)NC(=O)[C@H](CCC(=O)O)NC(=O)CNC(=O)[C@H](Cc2c[nH]c3ccccc23)NC(=O)[C@H](CC(=O)O)NC(=O)[C@H](CCC(N)=O)NC(=O)[C@H](Cc2cn(C)c3ccccc23)NC1=O` [Compound 157, Ac-SEFA(1)I[1-Me-Trp]QDWGEHRhC(1)TEGEGGG-K([17-carboxy-heptadecanoyl][γGlu]G[γGlu])-NH2] (Ac-SEFCI[Trp(1-Me)]QDWGEHR[Abu(4-yl)]TEGEGGGK([γGlu-Gly-γGlu-C18 diacid])-NH2; thioether 4-14), the IC50 in series [1] (setting [3]) is below 100 nM.
Same read-out and setting: the value for `CC[C@H](C)[C@@H]1NC(=O)[C@@H](NC(=O)[C@H](Cc2ccc(O)cc2)NC(=O)[C@H](C)NC(=O)[C@H](CO)NC(=O)CNC(=O)[C@H](CCC(=O)O)NC(C)=O)CSCC[C@@H](C(=O)N(C)CC(=O)N[C@@H](CCC(=O)O)C(=O)N[C@@H](CCCCN)C(=O)N[C@@H](CCC(=O)N[C@@H](CCCCNC(=O)COCCOCCNC(=O)COCCOCCNC(=O)CC[C@H](NC(=O)CCCCCCCCCCCCCCCCC(=O)O)C(=O)O)C(N)=O)C(=O)O)NC(=O)[C@H](CCCNC(=N)N)NC(=O)[C@H](Cc2c[nH]cn2)NC(=O)[C@H](CCC(=O)O)NC(=O)CNC(=O)[C@H](Cc2c[nH]c3ccccc23)NC(=O)[C@H](CC(=O)O)NC(=O)[C@H](CCC(N)=O)NC(=O)[C@H](Cc2cn(C)c3ccccc23)NC1=O` [Compound 159, Ac-EGSAYA(1)I[1-Me-Trp]QDWGEHRhC(1)[Sar]EK[γGlu]-K([17-carboxy-heptadecanoyl][γGlu][Peg3][Peg3])-NH2] (Ac-EGSAYCI[Trp(1-Me)]QDWGEHR[Abu(4-yl)][Sar]EK[γGlu]K([AEEA-AEEA-γGlu-C18 diacid])-NH2; thioether 6-16) was below 100 nM.
Take `N[C@@H](Cc1ccccc1)C(=O)O` [Phenylalanine, reference compound]: the IC50 in series [1] (Table 5, different residues at position 3 of Ac-IC(1)XWQDWGEHRC(1)T-NH2, read-out: IC50, CP hemolysis) was above 10000 nM.
For the compound `CC[C@H](C)[C@@H]1NC(=O)[C@@H](NC(=O)[C@H](Cc2ccccc2)NC(C)=O)CSSC[C@@H](C(=O)N[C@H](C(=O)NCC(=O)N[C@@H](C)C(=O)N[C@@H](CCC(=O)O)C(N)=O)[C@@H](C)O)NC(=O)[C@H](CCCNC(=N)N)NC(=O)[C@H](Cc2c[nH]cn2)NC(=O)[C@H](CCC(=O)O)NC(=O)CNC(=O)[C@H](Cc2c[nH]c3ccccc23)NC(=O)[C@H](CC(=O)O)NC(=O)[C@H](CCC(N)=O)NC(=O)[C@H](Cc2c[nH]c3ccccc23)NC1=O` [Compound 43] (Ac-FCIWQDWGEHRCTGAE-NH2; disulfide 2-12), the IC50 in series [1] (setting [3]) was below 100 nM.
For the compound `CC[C@H](C)[C@H](NC(=O)[C@H](C)NC(=O)[C@H](CO)NC(=O)CNC(=O)[C@H](CCC(=O)O)NC(C)=O)C(=O)N[C@H]1CSSC[C@@H](C(=O)N[C@H](C(N)=O)[C@@H](C)O)NC(=O)[C@H](CCCNC(=N)N)NC(=O)[C@H](Cc2c[nH]cn2)NC(=O)[C@H](CCC(=O)O)NC(=O)CNC(=O)[C@H](Cc2c[nH]c3ccccc23)NC(=O)[C@H](CC(=O)O)NC(=O)[C@H](CCC(N)=O)NC(=O)[C@H](Cc2c[nH]c3ccccc23)NC(=O)[C@H]([C@@H](C)CC)NC1=O` [Compound 29] (Ac-EGSAICIWQDWGEHRCT-NH2; disulfide 6-16), the IC50 in series [1] (setting [3]) is below 100 nM.
As for `CC[C@H](C)[C@H](NC(=O)[C@H](C)NC(=O)[C@H](CO)NC(=O)CNC(=O)[C@H](CCC(=O)O)NC(C)=O)C(=O)N[C@H]1CSSC[C@@H](C(=O)N[C@H](C(=O)N[C@@H](CCC(=O)O)C(=O)NCC(=O)N[C@@H](CCCCNC(=O)CC[C@H](NC(=O)CCCCCCCCCCCCCCC(=O)O)C(=O)O)C(N)=O)[C@@H](C)O)NC(=O)[C@H](CCCNC(=N)N)NC(=O)[C@H](Cc2c[nH]cn2)NC(=O)[C@H](CCC(=O)O)NC(=O)CNC(=O)[C@H](Cc2c[nH]c3ccccc23)NC(=O)[C@H](CC(=O)O)NC(=O)[C@H](CCC(N)=O)NC(=O)[C@H](Cc2c[nH]c3ccccc23)NC(=O)[C@H]([C@@H](C)CC)NC1=O` [Compound 101] (Ac-EGSAICIWQDWGEHRCTEGK([γGlu-C16 diacid])-NH2; disulfide 6-16), the IC50 in series [1] (setting [3]) is below 500 nM.
On to `CC[C@H](C)[C@@H]1NC(=O)[C@@H](NC(=O)[C@H](Cc2ccc(O)cc2)NC(=O)[C@H](C)NC(=O)[C@H](CO)NC(C)=O)CSSC[C@@H](C(=O)N(C)CC(=O)N[C@@H](CCC(=O)O)C(=O)N[C@@H](CCCCNC(=O)CC[C@H](NC(=O)CNC(=O)[C@H](CCCCN)NC(=O)CC[C@H](NC(=O)CCCCCCCCCCCCCCCCC(=O)O)C(=O)O)C(=O)O)C(N)=O)NC(=O)[C@H](CCCNC(=N)N)NC(=O)[C@H](Cc2c[nH]cn2)NC(=O)[C@H](CCC(=O)O)NC(=O)CNC(=O)[C@H](Cc2c[nH]c3ccccc23)NC(=O)[C@H](CC(=O)O)NC(=O)[C@H](CCC(N)=O)NC(=O)[C@H](Cc2cn(C)c3ccccc23)NC1=O` [Compound 105] (Ac-SAYCI[Trp(1-Me)]QDWGEHRC[Sar]EK([γGlu-Gly-Lys-γGlu-C18 diacid])-NH2; disulfide 4-14), for which, in series [2], the “Solubility, Condition 1 Acetate pH 4” value is listed as “− (denotes lack of solubility at the given condition, as UV absorbance at 340 nm exceeds 0.1 AU and/or it is visibly turbid or contains particles.)”; the “Solubility, Condition 2 Acetate pH 5” value was “− (denotes lack of solubility at the given condition, as UV absorbance at 340 nm exceeds 0.1 AU and/or it is visibly turbid or contains particles.)”; the “Solubility, Condition 3 Phosphate pH 6” value was “+ (denotes solubility at the given condition, as determined by UV absorbance being less than 0.1 AU at 340 nm and the sample being clear when manually inspected.)”; the “Solubility, Condition 4 Phosphate pH 7” value is “+ (denotes solubility at the given condition, as determined by UV absorbance being less than 0.1 AU at 340 nm and the sample being clear when manually inspected.)”. Further, the “Solubility, Condition 5 Phosphate pH 7.5” value in series [2] is “+ (denotes solubility at the given condition, as determined by UV absorbance being less than 0.1 AU at 340 nm and the sample being clear when manually inspected.)”.
As to `CC[C@H](C)[C@@H]1NC(=O)[C@@H](NC(=O)[C@H](Cc2ccc(O)cc2)NC(=O)[C@H](CCC(=O)O)NC(=O)[C@H](CO)NC(C)=O)CSSC[C@@H](C(=O)N(C)CC(=O)N[C@@H](CCC(=O)O)C(=O)NCC(=O)N[C@@H](CCC(=O)O)C(=O)N[C@@H](CCCCNC(=O)CC[C@H](NC(=O)[C@H](CCCCN)NC(=O)CC[C@H](NC(=O)CCCCCCCCCCCCCCCCC(=O)O)C(=O)O)C(=O)O)C(N)=O)NC(=O)[C@H](CCCNC(=N)N)NC(=O)[C@H](Cc2c[nH]cn2)NC(=O)[C@H](CCC(=O)O)NC(=O)CNC(=O)[C@H](Cc2c[nH]c3ccccc23)NC(=O)[C@H](CC(=O)O)NC(=O)[C@H](CCC(N)=O)NC(=O)[C@H](Cc2cn(C)c3ccccc23)NC1=O` [Compound 116] (Ac-SEYCI[Trp(1-Me)]QDWGEHRC[Sar]EGEK([γGlu-Lys-γGlu-C18 diacid])-NH2; disulfide 4-14), in series [2], the “Solubility, Condition 1 Acetate pH 4” value is given as “− (denotes lack of solubility at the given condition, as UV absorbance at 340 nm exceeds 0.1 AU and/or it is visibly turbid or contains particles.)”; the “Solubility, Condition 2 Acetate pH 5” value is recorded as “− (denotes lack of solubility at the given condition, as UV absorbance at 340 nm exceeds 0.1 AU and/or it is visibly turbid or contains particles.)”; the “Solubility, Condition 3 Phosphate pH 6” value is “+ (denotes solubility at the given condition, as determined by UV absorbance being less than 0.1 AU at 340 nm and the sample being clear when manually inspected.)”; the “Solubility, Condition 4 Phosphate pH 7” value is “+ (denotes solubility at the given condition, as determined by UV absorbance being less than 0.1 AU at 340 nm and the sample being clear when manually inspected.)”. In series [2], the “Solubility, Condition 5 Phosphate pH 7.5” value is “+ (denotes solubility at the given condition, as determined by UV absorbance being less than 0.1 AU at 340 nm and the sample being clear when manually inspected.)”.

For the origin of these results see patent US20220306695A1, “COMPSTATIN ANALOGUES AND THEIR MEDICAL USES” (priority 2019, published 2022).
